Columns and labels:
Erigeron canadensis [1] = assay: Herbicidal activity against compound-sensitive Conyza canadensis (horseweed) under greenhouse condition at 2.52 kg ae/ha measured 7 days post treatment relative to control; assay type: functional
Erigeron canadensis [2] = assay: Herbicidal activity against compound-sensitive Conyza canadensis (horseweed) under greenhouse condition at 0.45 kg ae/ha measured 21 days post treatment relative to control; assay type: functional
Erigeron canadensis [3] = assay: Herbicidal activity against Conyza canadensis (horseweed) under greenhouse condition at 0.05 kg ae/ha measured 7 days post treatment relative to control; assay type: functional
Erigeron canadensis [4] = assay: Herbicidal activity against compound-sensitive Conyza canadensis (horseweed) under greenhouse condition at 0.45 kg ae/ha measured 14 days post treatment relative to control; assay type: functional
Erigeron canadensis [5] = assay: Herbicidal activity against compound-sensitive Conyza canadensis (horseweed) under greenhouse condition assessed as fresh weight at 1.68 kg ae/ha measured 21 days post treatment relative to untreated control
Erigeron canadensis [6] = assay: Herbicidal activity against compound-resistant Conyza canadensis (horseweed) isolate 2 under greenhouse condition at 3.36 kg ae/ha measured 21 days post treatment relative to control; assay type: functional
Erigeron canadensis [7] = assay: Herbicidal activity against compound-resistant Conyza canadensis (horseweed) isolate 2 under greenhouse condition at 2.52 kg ae/ha measured 21 days post treatment relative to control; assay type: functional
Erigeron canadensis [8] = assay: Herbicidal activity against compound-resistant Conyza canadensis (horseweed) isolate 2 under greenhouse condition at 1.25 kg ae/ha measured 21 days post treatment relative to control; assay type: functional
Erigeron canadensis [9] = assay: Herbicidal activity against compound-sensitive Conyza canadensis (horseweed) under greenhouse condition at 1.68 kg ae/ha measured 14 days post treatment relative to control; assay type: functional
Erigeron canadensis [10] = assay: Herbicidal activity against compound-resistant Conyza canadensis (horseweed) isolate 2 under greenhouse condition at 0.45 kg ae/ha measured 7 days post treatment relative to control; assay type: functional
Erigeron canadensis [11] = assay: Herbicidal activity against compound-resistant Conyza canadensis (horseweed) isolate 1 under greenhouse condition assessed as fresh weight at 1.25 kg ae/ha measured 21 days post treatment relative to untreated control
Erigeron canadensis [12] = assay: Herbicidal activity against compound-resistant Conyza canadensis (horseweed) isolate 1 under greenhouse condition at 0.84 kg ae/ha measured 7 days post treatment relative to control; assay type: functional
Erigeron canadensis [13] = assay: Herbicidal activity against compound-resistant Conyza canadensis (horseweed) isolate 2 under greenhouse condition at 1.68 kg ae/ha measured 14 days post treatment relative to control; assay type: functional
Erigeron canadensis [14] = assay: Herbicidal activity against compound-resistant Conyza canadensis (horseweed) isolate 2 under greenhouse condition at 1.25 kg ae/ha measured 14 days post treatment relative to control; assay type: functional
Erigeron canadensis [15] = assay: Herbicidal activity against compound-resistant Conyza canadensis (horseweed) isolate 2 under greenhouse condition assessed as fresh weight at 0.45 kg ae/ha measured 21 days post treatment relative to untreated control
Erigeron canadensis [16] = assay: Herbicidal activity against Conyza canadensis (horseweed) under greenhouse condition at 0.05 kg ae/ha measured 14 days post treatment relative to control; assay type: functional
Erigeron canadensis [17] = assay: Herbicidal activity against compound-resistant Conyza canadensis (horseweed) isolate 2 under greenhouse condition at 0.84 kg ae/ha measured 21 days post treatment relative to control; assay type: functional
Erigeron canadensis [18] = assay: Herbicidal activity against compound-resistant Conyza canadensis (horseweed) isolate 1 under greenhouse condition at 9 kg ae/ha measured 14 days post treatment relative to control; assay type: functional
Erigeron canadensis [19] = assay: Herbicidal activity against compound-resistant Conyza canadensis (horseweed) isolate 2 under greenhouse condition at 0.45 kg ae/ha measured 14 days post treatment relative to control; assay type: functional
Erigeron canadensis [20] = assay: Herbicidal activity against Conyza canadensis (horseweed) under greenhouse condition at 0.05 kg ae/ha measured 21 days post treatment relative to control; assay type: functional
Erigeron canadensis [21] = assay: Herbicidal activity against compound-sensitive Conyza canadensis (horseweed) under greenhouse condition assessed as fresh weight at 1.25 kg ae/ha measured 21 days post treatment relative to untreated control
Erigeron canadensis [22] = assay: Herbicidal activity against compound-resistant Conyza canadensis (horseweed) isolate 1 under greenhouse condition at 1.25 kg ae/ha measured 7 days post treatment relative to control; assay type: functional
Erigeron canadensis [23] = assay: Herbicidal activity against compound-sensitive Conyza canadensis (horseweed) under greenhouse condition at 0.84 kg ae/ha measured 21 days post treatment relative to control; assay type: functional
Erigeron canadensis [24] = assay: Herbicidal activity against compound-resistant Conyza canadensis (horseweed) isolate 2 under greenhouse condition assessed as fresh weight at 0.84 kg ae/ha measured 21 days post treatment relative to untreated control
Erigeron canadensis [25] = assay: Herbicidal activity against compound-resistant Conyza canadensis (horseweed) isolate 1 under greenhouse condition at 2.52 kg ae/ha measured 7 days post treatment relative to control; assay type: functional
Erigeron canadensis [26] = assay: Herbicidal activity against compound-sensitive Conyza canadensis (horseweed) under greenhouse condition assessed as fresh weight at 2.52 kg ae/ha measured 21 days post treatment relative to untreated control
Erigeron canadensis [27] = assay: Herbicidal activity against compound-sensitive Conyza canadensis (horseweed) under greenhouse condition at 3.36 kg ae/ha measured 21 days post treatment relative to control; assay type: functional
Erigeron canadensis [28] = assay: Herbicidal activity against compound-resistant Conyza canadensis (horseweed) isolate 1 under greenhouse condition at 1.68 kg ae/ha measured 14 days post treatment relative to control; assay type: functional
Erigeron canadensis [29] = assay: Herbicidal activity against compound-resistant Conyza canadensis (horseweed) isolate 1 under greenhouse condition at 0.84 kg ae/ha measured 14 days post treatment relative to control; assay type: functional
Erigeron canadensis [30] = assay: Herbicidal activity against compound-sensitive Conyza canadensis (horseweed) under greenhouse condition at 9 kg ae/ha measured 14 days post treatment relative to control; assay type: functional
Erigeron canadensis [31] = assay: Herbicidal activity against compound-resistant Conyza canadensis (horseweed) isolate 1 under greenhouse condition at 1.68 kg ae/ha measured 21 days post treatment relative to control; assay type: functional
Erigeron canadensis [32] = assay: Herbicidal activity against compound-sensitive Conyza canadensis (horseweed) under greenhouse condition at 2.52 kg ae/ha measured 14 days post treatment relative to control; assay type: functional
Erigeron canadensis [33] = assay: Herbicidal activity against compound-sensitive Conyza canadensis (horseweed) under greenhouse condition at 0.84 kg ae/ha measured 7 days post treatment relative to control; assay type: functional
Erigeron canadensis [34] = assay: Herbicidal activity against compound-sensitive Conyza canadensis (horseweed) under greenhouse condition at 3.36 kg ae/ha measured 14 days post treatment relative to control; assay type: functional
Erigeron canadensis [35] = assay: Herbicidal activity against compound-resistant Conyza canadensis (horseweed) isolate 1 under greenhouse condition assessed as fresh weight at 0.84 kg ae/ha measured 21 days post treatment relative to untreated control
Erigeron canadensis [36] = assay: Herbicidal activity against compound-sensitive Conyza canadensis (horseweed) under greenhouse condition assessed as fresh weight at 9 kg ae/ha measured 21 days post treatment relative to untreated control
Erigeron canadensis [37] = assay: Herbicidal activity against compound-resistant Conyza canadensis (horseweed) isolate 2 under greenhouse condition assessed as fresh weight at 1.68 kg ae/ha measured 21 days post treatment relative to untreated control

SMILES: O=C(O)CNCP(=O)(O)O [GLYPHOSATE]
- Activity (Erigeron canadensis [1]): 83%
- Activity (Erigeron canadensis [2]): 74%
- Activity (Erigeron canadensis [3]): 14%
- Activity (Erigeron canadensis [4]): 40%
- level, % of control (Erigeron canadensis [5]): 1%
- Activity (Erigeron canadensis [6]): 75%
- Activity (Erigeron canadensis [7]): 63%
- Activity (Erigeron canadensis [8]): 25%
- Activity (Erigeron canadensis [9]): 98%
- Activity (Erigeron canadensis [10]): 13%
- level, % of control (Erigeron canadensis [11]): 88%
- Activity (Erigeron canadensis [12]): 20%
- Activity (Erigeron canadensis [13]): 44%
- Activity (Erigeron canadensis [14]): 15%
- level, % of control (Erigeron canadensis [15]): 94%
- Activity (Erigeron canadensis [16]): 16%
- Activity (Erigeron canadensis [17]): 24%
- Activity (Erigeron canadensis [18]): 80%
- Activity (Erigeron canadensis [19]): 13%
- Activity (Erigeron canadensis [20]): 26%
- level, % of control (Erigeron canadensis [21]): 19%
- Activity (Erigeron canadensis [22]): 28%
- Activity (Erigeron canadensis [23]): 88%
- level, % of control (Erigeron canadensis [24]): 86%
- Activity (Erigeron canadensis [25]): 58%
- level, % of control (Erigeron canadensis [26]): 2%
- Activity (Erigeron canadensis [27]): 99%
- Activity (Erigeron canadensis [28]): 40%
- Activity (Erigeron canadensis [29]): 13%
- Activity (Erigeron canadensis [30]): 98%
- Activity (Erigeron canadensis [31]): 43%
- Activity (Erigeron canadensis [32]): 99%
- Activity (Erigeron canadensis [33]): 58%
- Activity (Erigeron canadensis [34]): 95%
- level, % of control (Erigeron canadensis [35]): 94%
- level, % of control (Erigeron canadensis [36]): 1%
- level, % of control (Erigeron canadensis [37]): 49%
